The source of these data is article PMC11124822, “Discovery and Anticancer Screening of Novel Oxindole-Based Derivative Bearing Pyridyl Group as Potent and Selective Dual FLT3/CDK2 Kinase Inhibitor” (Pharmaceuticals, 2024).

In one experiment the test system is CDK4. More on the design: method as in PMID 29357250. The conditions noted are these: cited from earlier work.
The target in a further experiment is T1, FLT3 (Homo sapiens, UniProt P36888).
T1 construct: purchased Invitrogen/Life Technologies
T1 sequence (P36888 27-993): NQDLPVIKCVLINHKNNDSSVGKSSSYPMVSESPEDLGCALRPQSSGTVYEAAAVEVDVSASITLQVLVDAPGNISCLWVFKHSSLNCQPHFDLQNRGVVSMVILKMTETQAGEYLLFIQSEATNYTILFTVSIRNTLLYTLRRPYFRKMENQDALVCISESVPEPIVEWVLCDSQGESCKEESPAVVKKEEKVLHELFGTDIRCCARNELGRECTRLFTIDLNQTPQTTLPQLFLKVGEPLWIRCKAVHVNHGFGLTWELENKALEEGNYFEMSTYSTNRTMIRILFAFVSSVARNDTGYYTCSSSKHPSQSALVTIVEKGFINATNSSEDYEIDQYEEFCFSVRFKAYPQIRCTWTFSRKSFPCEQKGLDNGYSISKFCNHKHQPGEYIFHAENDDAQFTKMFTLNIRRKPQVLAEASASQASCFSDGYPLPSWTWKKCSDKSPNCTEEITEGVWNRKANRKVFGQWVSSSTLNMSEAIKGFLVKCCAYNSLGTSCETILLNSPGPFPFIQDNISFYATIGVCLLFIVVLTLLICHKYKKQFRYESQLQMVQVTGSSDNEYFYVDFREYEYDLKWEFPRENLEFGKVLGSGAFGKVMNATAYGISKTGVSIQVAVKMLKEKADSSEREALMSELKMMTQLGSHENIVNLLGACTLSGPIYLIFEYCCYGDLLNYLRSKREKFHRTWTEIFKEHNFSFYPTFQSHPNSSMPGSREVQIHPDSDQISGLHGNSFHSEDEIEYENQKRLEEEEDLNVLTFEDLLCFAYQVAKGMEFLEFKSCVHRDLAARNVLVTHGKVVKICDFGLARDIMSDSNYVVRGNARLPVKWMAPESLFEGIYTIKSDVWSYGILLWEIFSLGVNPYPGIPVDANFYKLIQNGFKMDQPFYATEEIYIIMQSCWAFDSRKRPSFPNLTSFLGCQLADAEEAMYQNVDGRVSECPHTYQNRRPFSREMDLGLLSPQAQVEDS
The experiment in a line: Z'-LYTE kinase assay. Type of experiment: biochemical. Particulars: three separate experiments ± SD. Here is the method: (§1) The Z’-LYTE® technology, which relies on FRET (Fluorescence Resonance Energy Transfer) from Invitrogen/Life Technologies, was employed for this evaluation for all kinases except VEGFR-2. The VEGFR-2 kinase assay was conducted in a 96-well streptavidin-coated plate using a recombinant human VEGFR-2/KDR ELISA kit, following the manufacturer’s instructions. […] Statistical significance was assessed using one-way analysis of variance (ANOVA), followed by the Dunnett test; data are represented as means ± SD.

A further experiment deals with T2, CDK2 (Homo sapiens, UniProt P24941).
T2 construct: purchased Invitrogen/Life Technologies
The experiment in a line: Z'-LYTE kinase assay. The class given is biochemical. The conditions noted are these: three separate experiments ± SD. Here is the method: as §1

The next experiment relates to CDK6. More on the design: method as in PMID 29357250. The conditions noted are these: cited from earlier work.
For the next experiment, the system named is MV4-11 cell xenografts. On the set-up: method as in PMID 29357250. Particulars: cited from earlier work.
Another experiment deals with FLT3 kinase. More on the design: method as in PMID 36403191, PMID 37446914. Particulars: cited from earlier work.
The test system of experiment [1] is FLT3 ITD-mutated MV4-11 AML cells. On the set-up: method as in PMID 36403191, PMID 37446914. Particulars: after 72 h; cited from earlier work.
For experiment [2], the system named is MCF-12A normal breast cell line. More on the design: method as in PMID 36844536. Particulars: cited from earlier work.
The subject of experiment [3] is MCF-7 breast cancer cell line. More on the design: method as in PMID 36844536. The conditions noted are these: cited from earlier work.

On to `CN1CCN(Cc2ccc(NC(=O)c3n[nH]cc3Nc3ncnc4[nH]ccc34)cc2)CC1` [FN-1501, 4-((7H-Pyrrolo[2,3-d]pyrimidin-4-yl)amino)-N-(4-((4-methylpiperazin-1-yl)methyl)phenyl)-1H-pyrazole-3-carboxamide], for which the IC50 was 0.85 nM in the experiment on CDK4, 0.79 ± 0.08 nM on FLT3, 1.99 ± 0.12 nM against CDK2 and 1.96 nM in the experiment on CDK6. Moreover, the “effectiveness in treating leukemia in mouse models” value in the experiment with MV4-11 cell xenografts is reported as “remarkable effectiveness”.

As to `COc1cc(C=C2C(=O)Nc3ccccc32)ccc1O` [III], the 50% inhibitory concentration (IC50) on FLT3 kinase was 2490 nM; in [1], 4300 nM.

Take `COc1cc(C=C2C(=O)Nc3ccc(Cl)cc32)ccc1OCc1ccccn1` [IV]: in experiment [2], the “impact on the MCF-12A normal breast cell line” value is on record as “no impact”. Further, the half-inhibitory concentration (IC50) in experiment [3] is 17000 nM.
